In one experiment the test system is NF-κB. In words: TNF-α-stimulated NF-κB dual luciferase reporter assay in HeLa cells. In kind it is cell-based. A digest of the protocol: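 HeLa cells transfected with NF-κB firefly luciferase and Renilla pRLuc-N3 plasmids (8:1), in triplicate; TNF-α stimulation with drug, luminescence read 5 h later by Dual-Glo. Firefly/Renilla ratio normalised to viable transfected cells, expressed as fold over cells without TNF-α or drug.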
Background: Reporter assays use an easily measured gene product as a stand-in for the process of interest.

The next experiment concerns MIA rat model of OA. In words: MIA trial 2 histopathology (same doses as dRS test). In kind it is in vivo. To be noted: group mean; tacrolimus 0.3 mg/kg, other drugs single dose. How it is done: Following functional testing in the first and second MIA trials, femurs were fixed in paraformaldehyde, processed, sectioned, stained with hematoxylin and eosin or Safranin O at Premier Laboratory (Longmont, CO, USA), and analyzed by a veterinary pathologist. For MIA trial 1, sections were evaluated for the percentage area of chondrocyte necrosis and/or proteolytic degeneration using a 5-point scale with 0 = none; 1 being <10 %; 2 = 10–30 %; 3 = 30–60 %; 4 = 60–90 %; and 5 being >90 %. Other characteristics of inflammation, proliferation, and integrity of the synovium, subchondral bone, and articular cartilage were scored as normal, minimal, mild, moderate, marked, or increased or decreased when severity was not graded. MIA trial 2 was measured similarly and then cross-checked according to the methods used for MIA trial 3 (see text below).
For MIA trial 3, joints were fixed and toluidine blue–stained sections of the rat knees were comprehensively analyzed from test and control subjects as detailed in Additional file 1. Briefly, a 5-point cartilage matrix score was derived based upon (1) approximate percentage of total loss of articular chondrocytes for each of four articular surfaces, (2) estimated proteoglycan loss (via Safranin O staining), and (3) loss of interstitial matrix. Chondrocyte necrosis and proteolytic degeneration of the femurs were scored on a 5-point scale as in trial 1. A femoral cartilage degeneration score and a three-zone sum of the tibial cartilage degeneration scores (mean of three levels) were also summed to create a total cartilage degeneration score. The mean osteophyte score for each joint was added to this value to create a total joint score with matrix. Other parameters assessed included synovial membrane inflammation and proliferation. Representative images from each group were also collected (see, e.g., Fig. 4 and Additional file 1: Fig. S55, Trial 3).
The histopathology for the first MIA trial was performed by Premier Laboratories (Dr. Michael Hawes, APS, Pathologist). Treatments were masked during the assessment. Chondrocyte necrosis and proteolytic degeneration of the femurs were scored on a 5 point scale with 0 = None; 1 = <10%; […]
proteoglycan content (safranin O staining), synovial membrane inflammation and proliferation, subchondral bone, and articular cartilage (as indicated in Supplementary methods). Characteristics within these categories were scored as normal, minimal, mild, moderate, marked, or +/- when severity was not graded. Slides from Trial 2 were further reviewed by Dr. Bendele using the analytical method described below for the MMT/MCLT model to confirm any conclusions.
For the histopathology of the MIA model in Trial 3, completed by Bolder BioPATH (and Dr.
Bendele), a tolouidine blue stained slide containing both halves of the joint was comprehensively analyzed from test and control subjects. Approximate % of total loss of articular chondrocytes, loss of proteoglycan and loss of collagenous matrix were determined for each articular surface (medial tibial plateau (MTP), lateral tibial plateau (LTP), medial femoral condyle (MFC), and lateral femoral condyle (LFC). Chondrocyte loss was quantified by estimating the area of cartilage in which there were no apparently viable chondrocytes and proteoglycan loss was quantified by estimating differences in intensity of toluidine blue matrix staining. Loss of interstitial matrix was an indication of disruption and diminished type II collagen. Based on the mean % loss for the four surfaces in these parameters, a five point matrix score was utilized with the subchondral bone resorption, subchondral bone sclerosis and osteophyte scores to achieve a total joint score.
(§1) Histopathology MMT/MCLT Model

The next experiment deals with MMT/MCLT rat model of OA. In words: MMT/MCLT trial 2 histopathology (same doses). The format is in vivo. The following applies: mean.
Source text: For MMT/MCLT rat knee joints, sections were cut in 200-μm steps; stained with toluidine blue (also with a right and left half per section); and similarly analyzed for cartilage degeneration, proteoglycan loss, collagen damage, and osteophyte formation. Results were averaged across the three sections for an overall semiquantitative score. Regional differences across the tibial plateau were taken into consideration by dividing each section into three zones delineated using an ocular micrometer (outside, middle, and inside). Scores were based on the percentage of area affected within the zone.
Cartilage degeneration in the tibia was scored on a 5-point scale as detailed in the Methods section of Additional file 1. The total extent of degeneration of the tibial plateau was measured (in micrometers) and included an analysis of cell loss, proteoglycan loss, and collagen damage. Significant cartilage degeneration reflecting any degeneration extending through more than 50 % of the cartilage thickness was also measured. Collagen damage across the medial tibial plateau (the most severely affected section of the two halves) was also quantified.
Osteophytes and femoral cartilage degeneration were analyzed as detailed in Additional file 1. Scoring of the osteophytes and categorization into small, medium, and large was performed using an ocular micrometer. The actual osteophyte measurement (tidemark to farthest distance point extending toward the synovium) was also recorded. The femoral cartilage degeneration score and the three-zone sum of the tibial cartilage degeneration scores (mean of three levels) were summed to create a total cartilage degeneration score. The mean osteophyte score for each joint was added to this value to create a total joint score. […]
as §1

Where [1] appears, read: tacrolimus 30 ng i.a., clonidine 100 μg/kg s.c.

Values joined by “and” are separate entries in the source; they are usually repeats but may differ in a detail not shown here. Equal values may be shown once.

Regarding `COc1ccc(C=CC(=O)Nc2ccccc2C(=O)O)cc1OC` [Tranilast, N-(3′,4′-dimethoxycinnamoyl)anthranilic acid], the “Effective range against NFkB” value in the experiment on NF-κB was “None”.
Consider `Clc1cccc(Cl)c1N=C1NCCN1` [Clonidine], for which, in the experiment with NF-κB, the “Effective range against NFkB” value is “Not effective”. Further, in the experiment with MIA rat model of OA, the Bone resorption score was determined as 3.7; the “Bone resorption, percent of surface, LFC” value was 87%; the “Bone resorption, percent of surface, LTP” value is given as 53%; the “Bone resorption, percent of surface, MFC” value stood at 63%. For the same compound, in the experiment on MIA rat model of OA, the “Bone resorption, percent of surface, MTP” value came to 73%; the “Bone resorption, percent of surface, mean” value stood at 69%; the “Cartilage matrix damage score” value was 3.7 and 3.7 ± 0.3; the “Mean of all cartilage loss” value is given as 67%. For the same compound, in the experiment on MIA rat model of OA, the Osteophyte measure is listed as 866.7 µm, the Osteophyte score came out at 4.0, the “Subchondral bone sclerosis score” value is reported as 0.3 and the “Total joint score w/o matrix” value turned out to be 8.0. In addition, the “Total joint score with matrix” value in the experiment with MIA rat model of OA is 11.7 and 11.7 ± 0.9. In the experiment with MMT/MCLT rat model of OA (i.a., tacrolimus 15 ng), the “Femoral cartilage degeneration score” value is 0.67 ± 0.23 and the Total joint score stood at 9.13 ± 0.54. In addition, in the experiment with MMT/MCLT rat model of OA (setting [1]), the “Femoral cartilage degeneration score” value amounted to 0.77 ± 0.28 and the Total joint score was determined as 11.03 ± 0.61.
